Data as given in patent publication US6849598B1, “Therapeutic compositions comprising bactericidal/permeability-increasing (BPI) protein products” (XOMA, priority 1995, dated 2005).

Tested on: P. aeruginosa (ATCC 19660)
Assay: Antibiotic susceptibility (MIC, Microscan® MIC Plus Type 2 panel) with rBPI21/P123 and EDTA
Format: cell-based
Design: key to susceptibility interpretation of MIC (superscript): R: resistant; I: intermediate; S: susceptible
Conditions: for effect of EDTA added to the rBPI21/P123 formulation on susceptibility of the strain to the antibiotic: summary of Table 17
Procedure: In additional experiments, a BPI protein product, rBPI21, was formulated with an anti-bacterial activity enhancing poloxamer, specifically PLURONIC P123, and with various concentrations of EDTA, and was evaluated for its effect on the antibiotic susceptibility of a Pseudomonas aeruginosa (ATCC 19660). Antibiotic susceptibility was determined using Microscan® panel plates (Dade Microscan, West Sacramento, Calif.) that allow simultaneous determination of minimum inhibitory concentrations for a number of different antibiotics.
The antimicrobial susceptibility tests performed on the Microscan® panel plates are miniaturizations of the broth dilution susceptibility test. Antimicrobial agents are serially diluted in Mueller-Hinton broth (supplemented with calcium and magnesium, or with sodium chloride for oxacillin, or with thymidine phosphorylase for trimethoprim, sulfamethoxazole and trimethoprim/ sulfamethoxazole) to concentrations bridging the range of clinical interest. One well on the 96-well Microscan® plate is a growth control well that contains dehydrated broth only. The remaining wells contain dehydrated broth and antibiotic (or broth and biochemical reagent indicator), which is rehydrated to the desired concentration by inoculation of a standardized suspension of test organism. The chromogenic biochemical agent indicators are used to identify and characterize the species of bacteria based on detection of pH changes and substrate utilization. […] Gram-negative and gram positive organisms may be tested using any of the Microscan® panel plates (Microscan®, Dade Microscan, West Sacramento, Calif.). In these experiments with P. aeruginosa, the MIC Plus Type 2 panel plates were used. The concentrations of antibiotics tested in this panel plate are shown below in Table 16. The antibiotic susceptibility standards (interpretation of an MIC as resistant, intermediate or susceptible according to Microscan®'s NCCLS-derived standards) applicable to the gram-negative organisms that may be tested in each panel plate appear below in Table 16A.
For these experiments with P. aeruginosa, the following procedure was performed: The organism was streaked onto TSA plates (Remel, Lenexa, Kans.) and incubated for 18-24 hours overnight. Well-isolated A, colonies from the plates were emulsified in 3 ml of sterile Inoculum Water d(catalog no. B1015-2, MicrosScan® system, Dade Microscan, West Sacramento, Calif.) to a final turbidity equivalent to 0.5 McFarland Barium Sulfate standard. This cell suspension was vortexed for 2 to 3 seconds and 100 μl was transferred to glass tubes containing 25 ml of Inoculum Water with Pluronic-D (catalog no. B1015-7, MicroScan® system, Dade Microscan, West Sacramento, Calif.) (hereinafter “Pluronic Inoculum Water”), or 25 ml of Pluronic Inoculum Water into which rBPI21 in 0.2% PLURONIC P123, 0.002% TWEEN 80, 5mM sodium citrate, 150 mM NaCl (“rBPI21/P123”) had been diluted to 64 μg/ml rBPI21.
The 25 ml of this inoculum containing rBPI21 was mixed by inversion and poured into a tray. The inoculum was drawn up into a manual 96-well pipetting system (RENOK^− rehydrator-inoculator system, Dade Microscan, West Sacramento, Calif.) designed for use with the Microscan® panel plates, and 110 μl of the inoculum was delivered to each well of a Microscan® MIC Plus Type 2 panel plate. When added to the wells, this inoculum achieves a final bacterial concentration of 4×10^5 to 7×10^5 CFU/ml. The panel plates were then incubated at 35° C. for 15-24 hours and read visually for cell growth.
No growth was defined as a slight whiteness in the well or a clear broth. Growth appeared as turbidity which could take the form of a white haze throughout the well, a white button in the center of the well, or a fine granule growth throughout the well. All wells were read against a black indirectly lighted background. Visual results of the biochemical reactions were read into a database for bacterial identification.

[1] = rBPI21/P123 at 64 μg/ml rBPI21, With 0% EDTA
[2] = rBPI21/P123 at 64 μg/ml rBPI21, With 0.01% EDTA
[3] = rBPI21/P123 at 64 μg/ml rBPI21, With 0.05% EDTA
[4] = rBPI21/P123 at 64 μg/ml rBPI21, With 0.1% EDTA

Compound	Minimum Inhibitory Concentration of Antibiotic (Control (No BPI21)) [µg/mL]	susceptibility interpretation of MIC (superscript) (Control (No BPI21))	Minimum Inhibitory Concentration of Antibiotic [1] [µg/mL]	susceptibility interpretation of MIC (superscript) [1]	Minimum Inhibitory Concentration of Antibiotic [2] [µg/mL]	susceptibility interpretation of MIC (superscript) [2]	Minimum Inhibitory Concentration of Antibiotic [3] [µg/mL]	susceptibility interpretation of MIC (superscript) [3]	Minimum Inhibitory Concentration of Antibiotic [4] [µg/mL]	susceptibility interpretation of MIC (superscript) [4]	effect of EDTA added to the rBPI21/P123 formulation on susceptibility of the strain to the antibiotic
CO/N=C(\C(=O)N[C@@H]1C(=O)N2C(C(=O)O)=CCS[C@H]12)c1csc(N)n1 [Ceftizoxime]	32	I	16	I	< 2	S	8	S	< 2	S	increasing the susceptibility
CO/N=C(\C(=O)N[C@@H]1C(=O)N2C(C(=O)O)=C(CSc3nc(=O)c(=O)[nH]n3C)CS[C@H]12)c1csc(N)n1 [Ceftriaxone]	16	I	4	S	8	S	< 2	S	< 2	S	increasing the susceptibility
CC(C)(O/N=C(\C(=O)N[C@@H]1C(=O)N2C(C(=O)[O-])=C(C[n+]3ccccc3)CS[C@H]12)c1csc(N)n1)C(=O)O [Ceftazidime]	2	S	< 1	S	< 1	S	< 1	S	< 1	S	
O=C(N[C@H](CO)[C@H](O)c1ccc([N+](=O)[O-])cc1)C(Cl)Cl [Chloramphenicol]	> 16	R	8	S	16	I	< 2	S	< 2	S	reversing resistance
